# From ChEMBL document CHEMBL6182913, “Design of Potent Small-Molecule Stimulator of Interferon Gene Inhibitor and Stimulator of Interferon Gene Mutant-Specific Degrader” (J Med Chem, 2025)
# Calls of active or inactive are those of the source. The calls are words filed in the database; no cut-off is given here.
# Legend:
# [1] = Cytotoxicity against human THP1-Blue ISG cells assessed as inhibition of cell growth at 10 uM incubated for 24 hrs by MTS assay relative to control; format: toxicity, cell-based
# [2] = biological target: T1, Stimulator of interferon genes protein (Homo sapiens, UniProt Q86WV6); test: Inhibition of STING in human THP-1 cells assessed as inhibition of cGAMP-induced IFN-beta release at 0.05 to 0.5 uM pretreated with compound for 6 hrs followed by cGAMP addition and measured after 18 hrs by ELISA; format: cell-based; settings: dose 0.05-0.5 µM, time 24.0 hrs
# Target sequence in this assay (Q86WV6 whole entry): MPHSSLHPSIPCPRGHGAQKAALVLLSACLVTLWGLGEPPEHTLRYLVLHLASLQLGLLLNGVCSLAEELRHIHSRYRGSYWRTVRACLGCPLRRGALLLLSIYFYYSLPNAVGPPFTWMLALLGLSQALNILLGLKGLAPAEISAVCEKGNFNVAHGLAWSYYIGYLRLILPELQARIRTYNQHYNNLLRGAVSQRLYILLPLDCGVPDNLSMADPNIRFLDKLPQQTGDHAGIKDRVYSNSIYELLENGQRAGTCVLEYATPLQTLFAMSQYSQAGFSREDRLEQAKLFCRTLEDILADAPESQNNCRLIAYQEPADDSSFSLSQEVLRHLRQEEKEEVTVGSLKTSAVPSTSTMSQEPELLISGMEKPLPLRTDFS
# [3] = Metabolic stability in human plasma assessed as half life in presence of NADPH by LC-MS/MS analysis; format: ADME, cell-free
# [4] = biological target: T2, Stimulator of interferon genes protein (Homo sapiens, UniProt Q86WV6, G230A/R293Q/R71H); test: Inhibition of diABZI-induced STING HAQ mutant transfected in human THP1-Blue ISG cells preincubated with compound for 6 hrs followed by diABZI addition and measured after 18 hrs by QUANTI-Blue based microplate reader analysis; format: cell-based
# T2 sequence (Q86WV6 whole entry R71H/G230A/R293Q): as the sequence (Q86WV6 whole entry) above, with R71H, G230A, R293Q counted along it
# [5] = biological target: T3, Stimulator of interferon genes protein (Mus musculus) (UniProt Q3TBT3); test: In vivo inhibition of cGAMP-induced STING activation in autoimmune disease female C57BL/6 mouse model assessed as decrease in cGAMP-induced serum INF-beta level at 10 mg/kg, sc pretreated with compound for 2 hrs followed by cGAMP addition and measured after 3 hrs by ELISA; format: functional, organism-based
# T3 sequence (whole entry): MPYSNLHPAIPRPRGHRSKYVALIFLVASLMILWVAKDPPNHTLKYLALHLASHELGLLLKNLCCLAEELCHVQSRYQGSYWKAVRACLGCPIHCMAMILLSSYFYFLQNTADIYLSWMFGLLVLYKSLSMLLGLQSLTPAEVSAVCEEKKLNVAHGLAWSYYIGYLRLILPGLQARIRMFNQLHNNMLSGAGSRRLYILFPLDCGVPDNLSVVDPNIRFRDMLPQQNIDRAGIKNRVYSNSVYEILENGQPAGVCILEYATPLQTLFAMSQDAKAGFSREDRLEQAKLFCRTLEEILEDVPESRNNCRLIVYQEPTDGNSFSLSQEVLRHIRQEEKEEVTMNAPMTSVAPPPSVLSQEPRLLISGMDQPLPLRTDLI
# [6] = Metabolic stability in human liver microsomes assessed as half life at 10 uM in presence of NADPH by LC-MS/MS analysis; format: ADME, Microsome
# [7] = biological target: T1, Stimulator of interferon genes protein; test: Inhibition of STING activation in human THP1-Blue ISG cells assessed as decrease in cGAMP-induced IRF3 phosphorylation at 0.1 to 1 uM preincubated with compound for 6 hrs followed by cGAMP addition and measured after 3 hrs by Western blotting analysis; format: cell-based; settings: dose 0.1-1 µM, time 9.0 hrs
# Target sequence in this assay (Q86WV6 whole entry): as the sequence (Q86WV6 whole entry) above
# [8] = Metabolic stability in mouse liver microsomes assessed as half life at 10 uM in presence of NADPH by LC-MS/MS analysis; format: ADME, Microsome
# [9] = biological target: T2, Stimulator of interferon genes protein; test: Inhibition of cGAMP-induced STING HAQ mutant transfected in human THP1-Blue ISG cells preincubated with compound for 6 hrs followed by cGAMP addition and measured after 18 hrs by QUANTI-Blue based microplate reader analysis; format: cell-based
# [10] = biological target: T1, Stimulator of interferon genes protein; test: Inhibition of cGAMP-induced STING S154 mutant transfected in human THP-1 cells preincubated with compound for 6 hrs followed by cGAMP addition and measured after 18 hrs by QUANTI-Luc based microplate reader analysis; format: cell-based
# Target sequence in this assay (Q86WV6 whole entry, looked up, change not shown): as the sequence (Q86WV6 whole entry) above
# [11] = biological target: T3, Stimulator of interferon genes protein (Mus musculus); test: Inhibition of STING in mouse BMDM cells assessed as inhibition of cGAMP-induced CXCL-10 release at 0.05 to 0.5 uM pretreated with compound for 6 hrs followed by cGAMP addition and measured after 18 hrs by ELISA; format: cell-based; settings: dose 0.05-0.5 µM, time 24.0 hrs
# [12] = biological target: T3, Stimulator of interferon genes protein (Mus musculus); test: Inhibition of STING in mouse BMDM cells assessed as inhibition of cGAMP-induced IFN-beta release at 0.05 to 0.5 uM pretreated with compound for 6 hrs followed by cGAMP addition and measured after 18 hrs by ELISA; format: cell-based; settings: dose 0.05-0.5 µM, time 24.0 hrs
# [13] = biological target: T1, Stimulator of interferon genes protein; test: Inhibition of STING activation in human THP1-Blue ISG cells assessed as decrease in cGAMP-induced STING phosphorylation at 0.1 to 1 uM preincubated with compound for 6 hrs followed by cGAMP addition and measured after 3 hrs by Western blotting analysis; format: cell-based; settings: dose 0.1-1 µM, time 9.0 hrs
# Target sequence in this assay (Q86WV6 whole entry): as above
# [14] = biological target: T4, Stimulator of interferon genes protein (Mus musculus, UniProt Q3TBT3); test: Inhibition of cGAMP-induced mouse STING transfected in human THP-1 cells preincubated with compound for 6 hrs followed by cGAMP addition and measured after 18 hrs by QUANTI-Luc based microplate reader analysis; format: cell-based
# T4 sequence (Q3TBT3 whole entry): T3 sequence (whole entry)
# [15] = Cmax in mouse at 20 mg/kg, po by LC-MS/MS analysis; format: ADME, organism-based; settings: in vivo, read-out: Cmax
# [16] = biological target: T3, Stimulator of interferon genes protein (Mus musculus); test: In vivo inhibition of cGAMP-induced STING activation in autoimmune disease female C57BL/6 mouse model assessed as decrease in cGAMP-induced serum CXCL-10 level at 10 mg/kg, sc pretreated with compound for 2 hrs followed by cGAMP addition and measured after 3 hrs by ELISA; format: functional, organism-based
# [17] = biological target: T1, Stimulator of interferon genes protein; test: Inhibition of cGAMP-induced STING R232 mutant transfected human THP-1 cells preincubated with compound for 6 hrs followed by cGAMP addition and measured after 18 hrs by QUANTI-Luc based microplate reader analysis; format: cell-based
# Target sequence in this assay (Q86WV6 whole entry, looked up, change not shown): as the sequence (Q86WV6 whole entry) above
# [18] = Metabolic stability in mouse plasma assessed as half life in presence of NADPH by LC-MS/MS analysis; format: ADME, cell-free
compound,measurement,setting,value
CC(C)(C)c1ccc(N2C(=O)c3ccccc3C(C(N)=O)C2c2cc3cc(-c4ccc(C(=O)Nc5ccc(O)c(NS(C)(=O)=O)c5)cc4)ccc3o2)cc1Cl (stereo not given),"inhibition at 24 h, 10 µM",[1],36.5%
same,inhibition,[2],Active
same,half-life,[3],> 4 h
same,IC50,[4],110 nM
same,inhibition,[5],Active
same,half-life at 10 µM,[6],> 1 h
same,inhibition,[7],Active
same,half-life at 10 µM,[8],> 1 h
same,IC50,[9],100 nM
same,IC50,[10],210 nM
same,inhibition,[11],Active
same,inhibition,[12],Active
same,inhibition,[13],Active
same,IC50,[14],20 nM
same,Cmax,[15],200 nM
same,inhibition,[16],Active
same,IC50,[17],30 nM
COc1ccc2c(c1)C(=O)N(c1ccc(C(C)(C)C)c(Cl)c1)C(c1cc3cc(-c4ccc(C(=O)Nc5ccc(O)c(NS(C)(=O)=O)c5)cc4)ccc3o1)C2C(N)=O (stereo not given),"inhibition at 24 h, 10 µM",[1],37.3%
same,half-life,[18],> 4 h
same,inhibition,[2],Active
same,half-life,[3],> 4 h
same,IC50,[4],80 nM
same,inhibition,[5],Active
same,half-life at 10 µM,[6],> 1 h
same,inhibition,[7],Active
same,half-life at 10 µM,[8],> 1 h
same,IC50,[9],80 nM
same,IC50,[10],260 nM
same,inhibition,[11],Active
same,inhibition,[12],Active
same,inhibition,[13],Active
same,IC50,[14],30 nM
same,Cmax,[15],200 nM
same,inhibition,[16],Active
same,IC50,[17],30 nM
